Source: patent publication US9776962B2, “Aromatic compounds with GPR40 agonistic activity” (TAKEDA PHARMACEUTICAL COMPANY LIMITED, priority 2013, dated 2017)

Biological target: T1, human GPR40 (Homo sapiens, UniProt O14842)
T1 construct: expressed in transfected cells
Assay: Evaluation of human GPR40 agonist activity with increase in intracellular Ca2+ concentration as an index (FLIPR)
Type: cell-based
Settings: test compound 1 μM; CHO(dhfr−) cells stably expressing human GPR40; 100% = 10 μM compound of Example 153, 0% = DMSO
How it was run: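 CHO(dhfr−) cells stably expressing full-length human GPR40 were loaded with Ca2+ probe for 1 h at room temperature, then given test compound at 1 μM final. Fluorescence was followed on FLIPR, with activity scaled to a reference agonist at 10 μM (100%) and DMSO (0%).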

T1 sequence (O14842 whole entry): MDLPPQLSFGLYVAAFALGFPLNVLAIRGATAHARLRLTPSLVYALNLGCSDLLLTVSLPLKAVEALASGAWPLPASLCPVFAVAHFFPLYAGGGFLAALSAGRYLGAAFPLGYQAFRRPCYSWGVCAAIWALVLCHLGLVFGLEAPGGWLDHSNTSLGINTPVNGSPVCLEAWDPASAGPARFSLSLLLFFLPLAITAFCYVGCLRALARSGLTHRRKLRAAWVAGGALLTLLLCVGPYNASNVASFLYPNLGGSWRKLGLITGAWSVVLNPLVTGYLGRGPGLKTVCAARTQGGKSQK

Row | SMILES | activation at 1 µM [%]
1 | COc1ccc(C(=O)N(CC(F)F)c2ccccn2)c(N2CCC(COc3cc(C(CC(=O)O)C4CC4)ccn3)CC2)c1 (centres unmarked) [Example 137, 3-cyclopropyl-3-(2-((1-(2-((2,2-difluoroethyl)(pyridin-2-yl)carbamoyl)-5-methoxyphenyl)piperidin-4-yl)methoxy)pyridin-4-yl)propanoic acid] | 96
2 | CCc1ccc(C(=O)N(CC(C)(C)C)c2cccc(C)n2)c(N2CCC(COc3cc(C(CC(=O)O)C4CC4)ccn3)CC2)c1 (centres unmarked) [Example 109, 3-cyclopropyl-3-(2-((1-(2-((2,2-dimethylpropyl)(6-methylpyridin-2-yl)carbamoyl)-5-ethylphenyl)piperidin-4-yl)methoxy)pyridin-4-yl)propanoic acid] | 90
3 | COc1ccc(C(=O)N(CC(C)(C)C)c2cc(C)cnn2)c(N2CCC(COc3cc(C(CC(=O)O)C4CC4)ccn3)CC2)c1 (centres unmarked) [Example 232, 3-cyclopropyl-3-(2-((1-(2-((2,2-dimethylpropyl) (5-methylpyridazin-3-yl)carbamoyl)-5-methoxyphenyl)piperidin-4-yl)methoxy)pyridin-4-yl)propanoic acid] | 85
4 | COc1ccc(C(=O)N(c2ccccn2)C(C)C)c(N2CCC(COc3cc(C(CC(=O)O)C4CC4)ccn3)CC2)c1 (centres unmarked) [Example 146, 3-cyclopropyl-3-(2-((1-(5-methoxy-2-(propan-2-yl(pyridin-2-yl)carbamoyl)phenyl)piperidin-4-yl)methoxy)pyridin-4-yl)propanoic acid] | 82
5 | CCOC(CC(=O)O)c1ccnc(OCC2CCN(c3cc(OC)ccc3C(=O)N(CC(C)(C)C)c3cccc(C)n3)CC2)c1 (centres unmarked) [Example 272, 3-(2-((1-(2-((2,2-dimethylpropyl)(6-methylpyridin-2-yl)carbamoyl)-5-methoxyphenyl)piperidin-4-yl)methoxy)pyridin-4-yl)-3-ethoxypropanoic acid] | 95
6 | COc1ccc(C(=O)N(CC2CCOCC2)c2ccccn2)c(N2CCC(COc3cc(C(CC(=O)O)C4CC4)ccn3)CC2)c1 (centres unmarked) [Example 196, 3-cyclopropyl-3-(2-((1-(5-methoxy-2-(pyridin-2-yl(tetrahydro-2H-pyran-4-ylmethyl)carbamoyl)phenyl)piperidin-4-yl)methoxy)pyridin-4-yl)propanoic acid] | 81
7 | COc1ccc(C(=O)N(CC(C)(C)C)c2cncc(C)c2)c(N2CCC(COc3cc(C(CC(=O)O)C4CC4)ccn3)CC2)c1 (centres unmarked) [Example 231, 3-cyclopropyl-3-(2-((1-(2-((2,2-dimethylpropyl) (5-methylpyridin-3-yl)carbamoyl)-5-methoxyphenyl)piperidin-4-yl)methoxy)pyridin-4-yl)propanoic acid] | 92
8 | COc1ccc(C(=O)N(CC(F)(F)F)c2cc(C)ccn2)c(N2CCC(COc3cc(C(CC(=O)O)C4CC4)ccn3)CC2)c1 (centres unmarked) [Example 148, 3-cyclopropyl-3-(2-((1-(5-methoxy-2-((4-methylpyridin-2-yl)(2,2,2-trifluoroethyl)carbamoyl)phenyl)piperidin-4-yl)methoxy)pyridin-4-yl)propanoic acid] | 104
9 | COc1ccc(C(=O)N(CC(C)(C)OC)c2ccccn2)c(N2CCC(COc3cc(C(CC(=O)O)C4CC4)ccn3)CC2)c1 (centres unmarked) [Example 131, 3-cyclopropyl-3-(2-((1-(5-methoxy-2-((2-methoxy-2-methylpropyl)(pyridin-2-yl)carbamoyl)phenyl)piperidin-4-yl)methoxy)pyridin-4-yl)propanoic acid] | 85
10 | CCC(C)(C)N(C(=O)c1ccc(OC)cc1N1CCC(COc2cc(C(CC(=O)O)C3CC3)ccn2)CC1)c1ccccn1 (centres unmarked) [Example 145, 3-cyclopropyl-3-(2-((1-(5-methoxy-2-((2-methylbutan-2-yl)(pyridin-2-yl)carbamoyl)phenyl)piperidin-4-yl)methoxy)pyridin-4-yl)propanoic acid] | 96
11 | Cc1cccc(N(CC(C)(C)C)C(=O)c2ccc(Br)cc2N2CCC(COc3cc(C(CC(=O)O)C4CC4)ccn3)CC2)n1 (centres unmarked) [Example 263, 3-(2-((1-(5-bromo-2-((2,2-dimethylpropyl)(6-methylpyridin-2-yl)carbamoyl)phenyl)piperidin-4-yl)methoxy)pyridin-4-yl)-3-cyclopropylpropanoic acid] | 94
12 | Cc1cccc(N(CC(C)(C)C)C(=O)c2ccc(C(N)=O)cc2N2CCC(COc3cc(C(CC(=O)O)C4CC4)ccn3)CC2)n1 (centres unmarked) [Example 261, 3-(2-((1-(5-carbamoyl-2-((2,2-dimethylpropyl)(6-methylpyridin-2-yl)carbamoyl)phenyl)piperidin-4-yl)methoxy)pyridin-4-yl)-3-cyclopropylpropanoic acid] | 11
13 | COc1ccc(C(=O)N(CC2CC2)c2cccc(C)n2)c(N2CCC(COc3cc(C(CC(=O)O)C4CC4)ccn3)CC2)c1 (centres unmarked) [Example 124, 3-cyclopropyl-3-(2-((1-(2-((cyclopropylmethyl)(6-methylpyridin-2-yl)carbamoyl)-5-methoxyphenyl)piperidin-4-yl)methoxy)pyridin-4-yl)propanoic acid] | 96
14 | COc1ccc(C(=O)Nc2cccc(C)n2)c(N2CCC(COc3cc(C(CC(=O)O)C4CC4)ccn3)CC2)c1 (centres unmarked) [Example 241, 3-cyclopropyl-3-(2-((1-(5-methoxy-2-((6-methylpyridin-2-yl)-carbamoyl)phenyl)-piperidin-4-yl)methoxy)pyridin-4-yl)propanoic acid] | 95
15 | COc1ccc(C(=O)N(CC(C)C)c2cccc(C#N)c2)c(N2CCC(COc3cc(C(CC(=O)O)C4CC4)ccn3)CC2)c1 (centres unmarked) [Example 132, 3-(2-((1-(2-((3-cyanophenyl)(2-methylpropyl)carbamoyl)-5-methoxyphenyl)piperidin-4-yl)methoxy)pyridin-4-yl)-3-cyclopropylpropanoic acid] | 99
16 | COc1ccc(C(=O)N(CC(C)(C)F)c2ccccn2)c(N2CCC(COc3cc(C(CC(=O)O)C4CC4)ccn3)CC2)c1 (centres unmarked) [Example 120, 3-cyclopropyl-3-(2-((1-(2-((2-fluoro-2-methylpropyl)(pyridin-2-yl)carbamoyl)-5-methoxyphenyl)piperidin-4-yl)methoxy)pyridin-4-yl)propanoic acid] | 100
17 | COc1ccc(C(=O)N(CC(C)(C)C)c2cc(C)nc(C)n2)c(N2CCC(COc3cc(C(CC(=O)O)C4CC4)ccn3)CC2)c1 (centres unmarked) [Example 228, 3-cyclopropyl-3-(2-((1-(2-((2,2-dimethylpropyl) (2,6-dimethylpyrimidin-4-yl)carbamoyl)-5-methoxyphenyl)piperidin-4-yl)methoxy)pyridin-4-yl)propanoic acid] | 99
18 | COc1ccc(C(=O)N(CC(C)(C)C)c2cnccn2)c(N2CCC(COc3cc(C(CC(=O)O)C4CC4)ccn3)CC2)c1 (centres unmarked) [Example 178, 3-cyclopropyl-3-(2-((1-(2-((2,2-dimethylpropyl)(pyrazin-2-yl)carbamoyl)-5-methoxyphenyl)piperidin-4-yl)methoxy)pyridin-4-yl)propanoic acid] | 103
19 | COc1ccc(C(=O)N(CC(C)(C)OC)c2cc(C)ccn2)c(N2CCC(COc3cc(C(CC(=O)O)C4CC4)ccn3)CC2)c1 (centres unmarked) [Example 164, 3-cyclopropyl-3-(2-((1-(5-methoxy-2-((2-methoxy-2-methylpropyl)(4-methylpyridin-2-yl)carbamoyl)phenyl)piperidin-4-yl)methoxy)pyridin-4-yl)propanoic acid] | 88
20 | COc1ccc(C(=O)N(CC(C)(C)C)c2cc(C)ncn2)c(N2CCC(COc3cc(C(CC(=O)O)C4CC4)ccn3)CC2)c1 (centres unmarked) [Example 230, 3-cyclopropyl-3-(2-((1-(2-((2,2-dimethylpropyl) (6-methylpyrimidin-4-yl)carbamoyl)-5-methoxyphenyl)piperidin-4-yl)methoxy)pyridin-4-yl)propanoic acid] | 98
21 | COc1ccc(C(=O)N(CC(C)(C)C)c2cccc(C)n2)c(N2CCC(C(C)Oc3cc(C(CC(=O)O)C4CC4)ccn3)CC2)c1 (centres unmarked) [Example 268, 3-cyclopropyl-3-(2-(1-(1-(2-((2,2-dimethylpropyl)(6-methylpyridin-2-yl)carbamoyl)-5-methoxyphenyl)piperidin-4-yl)ethoxy)pyridin-4-yl)propanoic acid] | 92
22 | CCc1ccc(C(=O)N(CC(F)(F)C(F)(F)F)C(C)C)c(N2CCC(COc3cccc(C(CC(=O)O)C4CC4)c3)CC2)c1 (centres unmarked) [Example 54, 3-cyclopropyl-3-(3-((1-(5-ethyl-2-((2,2,3,3,3-pentafluoropropyl)(propan-2-yl)carbamoyl)phenyl)piperidin-4-yl)methoxy)phenyl)propanoic acid] | 89
23 | COc1ccc(C(=O)N(CC(C)C)c2ccccn2)c(N2CCC(COc3cccc(C(CC(=O)O)C4CC4)c3)CC2)c1 (centres unmarked) [Example 62, 3-cyclopropyl-3-(3-((1-(5-methoxy-2-((2-methylpropyl)(pyridin-2-yl)carbamoyl)phenyl)piperidin-4-yl)methoxy)phenyl)propanoic acid] | 101
